Columns and labels:
Bacillus coagulans = assay: Probiotic growth in media supplemented with MSM; type: cell-based; conditions: […] MSM
From the text: (§1) Plates were then counted. […] Data are presented in Cfu/mL.

[1] = tested on: Lactobacillus acidophilus; assay: Probiotic growth in media supplemented with MSM; type: cell-based
From the text: as §1

## Methylsulfonylmethane [MSM]
Bacillus coagulans; 8 h
  Growth of Bacillus coagulans: 5.13 log10 CFU/mL
Bacillus coagulans; 16 h
  Growth of Bacillus coagulans: 7.05 log10 CFU/mL
Bacillus coagulans; 24 h
  Growth of Bacillus coagulans: 10.22 log10 CFU/mL
Bacillus coagulans; 32 h
  Growth of Bacillus coagulans: 11.70 log10 CFU/mL
Bacillus coagulans; 40 h
  Growth of Bacillus coagulans: 10.55 log10 CFU/mL
Bacillus coagulans; 48 h
  Growth of Bacillus coagulans: 10.88 log10 CFU/mL
Bacillus coagulans; 56 h
  Growth of Bacillus coagulans: 10.86 log10 CFU/mL
Bacillus coagulans; 64 h
  Growth of Bacillus coagulans: 10.97 log10 CFU/mL
Bacillus coagulans; 72 h
  Growth of Bacillus coagulans: 11.05 log10 CFU/mL
[1]; 0.125% MSM, 0 h
  Growth of Lactobacillus acidophilus: 1.37 log10 CFU/mL
[1]; 0.125% MSM, 8 h
  Growth of Lactobacillus acidophilus: 2.19 log10 CFU/mL
[1]; 0.125% MSM, 16 h
  Growth of Lactobacillus acidophilus: 4.83 log10 CFU/mL
[1]; 0.125% MSM, 24 h
  Growth of Lactobacillus acidophilus: 7.14 log10 CFU/mL
[1]; 0.125% MSM, 32 h
  Growth of Lactobacillus acidophilus: 9.15 log10 CFU/mL
[1]; 0.125% MSM, 40 h
  Growth of Lactobacillus acidophilus: 9.53 log10 CFU/mL
[1]; 0.125% MSM, 48 h
  Growth of Lactobacillus acidophilus: 9.59 log10 CFU/mL
[1]; 0.125% MSM, 56 h
  Growth of Lactobacillus acidophilus: 10.16 log10 CFU/mL
[1]; 0.125% MSM, 64 h
  Growth of Lactobacillus acidophilus: 9.40 log10 CFU/mL
[1]; 0.125% MSM, 72 h
  Growth of Lactobacillus acidophilus: 8.56 log10 CFU/mL
[1]; 0.2% MSM, 0 h
  Growth of Lactobacillus acidophilus: 1.37 log10 CFU/mL
[1]; 0.2% MSM, 8 h
  Growth of Lactobacillus acidophilus: 1.43 log10 CFU/mL
[1]; 0.2% MSM, 16 h
  Growth of Lactobacillus acidophilus: 5.74 log10 CFU/mL
[1]; 0.2% MSM, 24 h
  Growth of Lactobacillus acidophilus: 8.19 log10 CFU/mL
[1]; 0.2% MSM, 32 h
  Growth of Lactobacillus acidophilus: 9.85 log10 CFU/mL
[1]; 0.2% MSM, 40 h
  Growth of Lactobacillus acidophilus: 9.50 log10 CFU/mL
[1]; 0.2% MSM, 48 h
  Growth of Lactobacillus acidophilus: 9.32 log10 CFU/mL
[1]; 0.2% MSM, 56 h
  Growth of Lactobacillus acidophilus: 9.26 log10 CFU/mL
[1]; 0.2% MSM, 64 h
  Growth of Lactobacillus acidophilus: 9.37 log10 CFU/mL
[1]; 0.2% MSM, 72 h
  Growth of Lactobacillus acidophilus: 8.36 log10 CFU/mL
[1]; 0.50% MSM, 0 h
  Growth of Lactobacillus acidophilus: 1.30 log10 CFU/mL
[1]; 0.50% MSM, 8 h
  Growth of Lactobacillus acidophilus: 2.01 log10 CFU/mL
[1]; 0.50% MSM, 16 h
  Growth of Lactobacillus acidophilus: 3.82 log10 CFU/mL
[1]; 0.50% MSM, 24 h
  Growth of Lactobacillus acidophilus: 6.47 log10 CFU/mL
[1]; 0.50% MSM, 32 h
  Growth of Lactobacillus acidophilus: 9.15 log10 CFU/mL
[1]; 0.50% MSM, 40 h
  Growth of Lactobacillus acidophilus: 9.58 log10 CFU/mL
[1]; 0.50% MSM, 48 h
  Growth of Lactobacillus acidophilus: 10.45 log10 CFU/mL
[1]; 0.50% MSM, 56 h
  Growth of Lactobacillus acidophilus: 9.33 log10 CFU/mL
[1]; 0.50% MSM, 64 h
  Growth of Lactobacillus acidophilus: 9.53 log10 CFU/mL
[1]; 0.50% MSM, 72 h
  Growth of Lactobacillus acidophilus: 8.57 log10 CFU/mL
[1]; 1% MSM, 0 h
  Growth of Lactobacillus acidophilus: 1.48 log10 CFU/mL
[1]; 1% MSM, 8 h
  Growth of Lactobacillus acidophilus: 2.25 log10 CFU/mL
[1]; 1% MSM, 16 h
  Growth of Lactobacillus acidophilus: 3.79 log10 CFU/mL
[1]; 1% MSM, 24 h
  Growth of Lactobacillus acidophilus: 6.77 log10 CFU/mL
[1]; 1% MSM, 32 h
  Growth of Lactobacillus acidophilus: 9.05 log10 CFU/mL
[1]; 1% MSM, 40 h
  Growth of Lactobacillus acidophilus: 9.49 log10 CFU/mL
[1]; 1% MSM, 48 h
  Growth of Lactobacillus acidophilus: 10.98 log10 CFU/mL
[1]; 1% MSM, 56 h
  Growth of Lactobacillus acidophilus: 10.90 log10 CFU/mL
[1]; 1% MSM, 64 h
  Growth of Lactobacillus acidophilus: 10.34 log10 CFU/mL
[1]; 1% MSM, 72 h
  Growth of Lactobacillus acidophilus: 8.68 log10 CFU/mL
[1]; 5% MSM, 0 h
  Growth of Lactobacillus acidophilus: 1.52 log10 CFU/mL
[1]; 5% MSM, 8 h
  Growth of Lactobacillus acidophilus: 1.37 log10 CFU/mL
[1]; 5% MSM, 16 h
  Growth of Lactobacillus acidophilus: 2.69 log10 CFU/mL
[1]; 5% MSM, 24 h
  Growth of Lactobacillus acidophilus: 5.36 log10 CFU/mL
[1]; 5% MSM, 32 h
  Growth of Lactobacillus acidophilus: 8.91 log10 CFU/mL
[1]; 5% MSM, 40 h
  Growth of Lactobacillus acidophilus: 9.25 log10 CFU/mL
[1]; 5% MSM, 48 h
  Growth of Lactobacillus acidophilus: 10.88 log10 CFU/mL
[1]; 5% MSM, 56 h
  Growth of Lactobacillus acidophilus: 10.01 log10 CFU/mL
[1]; 5% MSM, 64 h
  Growth of Lactobacillus acidophilus: 8.95 log10 CFU/mL
[1]; 5% MSM, 72 h
  Growth of Lactobacillus acidophilus: 6.66 log10 CFU/mL
[1]; […] MSM, 0 h
  Growth of Lactobacillus acidophilus: 1.48 log10 CFU/mL
[1]; […] MSM, 8 h
  Growth of Lactobacillus acidophilus: 2.20 log10 CFU/mL
[1]; […] MSM, 16 h
  Growth of Lactobacillus acidophilus: 4.24 log10 CFU/mL
[1]; […] MSM, 24 h
  Growth of Lactobacillus acidophilus: 5.78 log10 CFU/mL
[1]; […] MSM, 32 h
  Growth of Lactobacillus acidophilus: 9.16 log10 CFU/mL
[1]; […] MSM, 40 h
  Growth of Lactobacillus acidophilus: 9.35 log10 CFU/mL
[1]; […] MSM, 48 h
  Growth of Lactobacillus acidophilus: 10.16 log10 CFU/mL
[1]; […] MSM, 56 h
  Growth of Lactobacillus acidophilus: 11.10 log10 CFU/mL
[1]; […] MSM, 64 h
  Growth of Lactobacillus acidophilus: 11.58 log10 CFU/mL
[1]; […] MSM, 72 h
  Growth of Lactobacillus acidophilus: 8.44 log10 CFU/mL
